The text below walks through data of article PMC4624963, “Enzymatic Characterization of Recombinant Food Vacuole Plasmepsin 4 from the Rodent Malaria Parasite Plasmodium berghei” (PLoS ONE, 2015).

In test [1] the target is T1, PbPM4 (Plasmodium berghei, UniProt O76965). Nature of the test: Inhibition of mature PbPM4, dissociation constants (Ki) from initial cleavage velocities of a chromogenic peptide substrate. The test is classed as biochemical. How it is done: (§1) Chromogenic peptide substrates were dissolved in a solution containing 20% dimethyl sulfoxide (DMSO), 10% formic acid, and 70% distilled deionized water to generate stock solutions. Inhibitor stock solutions were prepared in 100% DMSO. The concentrations of the stock solutions were determined by amino acid analysis.
T1 sequence (O76965 entry or part of it): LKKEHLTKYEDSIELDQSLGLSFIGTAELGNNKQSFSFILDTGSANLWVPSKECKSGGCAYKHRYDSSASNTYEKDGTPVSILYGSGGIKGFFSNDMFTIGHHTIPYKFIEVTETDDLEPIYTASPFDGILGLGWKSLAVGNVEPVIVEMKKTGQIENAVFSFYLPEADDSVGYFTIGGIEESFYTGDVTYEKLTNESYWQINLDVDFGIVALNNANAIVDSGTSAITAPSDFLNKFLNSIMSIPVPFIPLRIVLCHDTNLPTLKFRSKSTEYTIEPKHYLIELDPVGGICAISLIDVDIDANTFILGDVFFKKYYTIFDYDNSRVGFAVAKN
(§2) Kinetic assays were set up in 500 mM sodium citrate, pH 5.0 at 37°C with a 5-min pre-equilibrium time with buffer. To study kinetics of the zymogen form, assays were set up in 500 mM sodium citrate, pH 5.5 at 37°C with a 5-min pre-equilibrium time. All enzymatic reactions were carried out at 37°C.
(§3) Dissociation constants were determined as previously described.
(§4) The enzymes were prepared for kinetic assays: purified proPbPM4 was pre-incubated in 100 mM sodium citrate, pH 5.0, at 37°C for 5 min; purified mature PfPM1 was pre-incubated in 100 mM sodium citrate, pH 5.5, at 37°C for 3 min; all the other plasmepsins were pre-incubated in 100 mM sodium formate, pH 4.5, at 37°C for 5 min to convert zymogen to mature enzyme before the addition of substrates. Pre-incubation of hcatD was carried out in 200 mM sodium formate, pH 3.7, at 37°C for 5 min. Compound 1 was dissolved in 100% DMSO, and filtered through a 0.45 μm Costar cellulose acetate tube filter by centrifugation at 20,000 g, room temperature for 5 min to remove any particulate. The concentration of compound 1 was determined by amino acid analysis. Dissociation constants (Ki) were determined as described above.

The target in the next test is PvPM4 (Plasmodium vivax, UniProt O60989). Nature of the test: biochemical. As to the method: as §3
PvPM4, sequence (O60989 122-450 limits assumed): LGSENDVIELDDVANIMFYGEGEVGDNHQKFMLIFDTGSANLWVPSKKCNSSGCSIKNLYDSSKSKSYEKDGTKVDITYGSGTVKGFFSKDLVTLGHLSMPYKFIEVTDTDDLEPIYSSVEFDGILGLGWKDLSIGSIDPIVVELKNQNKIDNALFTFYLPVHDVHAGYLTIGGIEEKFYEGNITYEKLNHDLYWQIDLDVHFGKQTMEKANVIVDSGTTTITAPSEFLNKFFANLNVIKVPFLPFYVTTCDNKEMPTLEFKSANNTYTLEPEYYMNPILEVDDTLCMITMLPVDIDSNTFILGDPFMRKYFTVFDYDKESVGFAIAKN
(§5) Besides PbPM4, the cloning, expression and purification of recombinant human FV plasmepsins, including PfPM1, 2 and 4, PoPM4, PvPM4 and PmPM4, and hcatD were performed according to experimental procedures described in previous reports. Briefly, genes encoding N-terminally truncated semi-pro-enzymes were cloned from genomic DNA, or intra-erythrocyte stage cDNA library of Plasmodium spp. (e.g., in the case of PfPM1), and inserted to pET expression vectors (EMD Millipore). Protein expression, inclusion body preparation and in vitro protein refolding were performed as described above for PbPM4. Proteins were purified using anion exchange chromatography.
as §4, with “Compound 1 was dissolved in 100% DMSO, and filtered through a 0.45 μm Costar cellulose acetate tube filter by centrifugation at 20,000 g, room temperature for 5 min to remove any particulate.” left out

In the next test the target is PfPM1 (Plasmodium falciparum, UniProt P39898). The experiment in a line: biochemical. How it is done: as §3, §5
PfPM1, sequence (P39898 124-452): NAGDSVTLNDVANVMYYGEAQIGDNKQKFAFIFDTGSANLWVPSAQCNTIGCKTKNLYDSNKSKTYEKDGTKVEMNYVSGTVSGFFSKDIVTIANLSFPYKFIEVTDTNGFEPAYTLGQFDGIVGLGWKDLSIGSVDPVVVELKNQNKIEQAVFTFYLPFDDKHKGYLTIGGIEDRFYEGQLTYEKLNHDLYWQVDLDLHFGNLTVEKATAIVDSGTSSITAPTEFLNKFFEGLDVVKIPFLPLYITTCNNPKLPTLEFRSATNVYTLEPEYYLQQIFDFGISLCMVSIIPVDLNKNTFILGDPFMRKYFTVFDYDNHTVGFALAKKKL
as §4, with “Compound 1 was dissolved in 100% DMSO, and filtered through a 0.45 μm Costar cellulose acetate tube filter by centrifugation at 20,000 g, room temperature for 5 min to remove any particulate.” left out

The target in test [2] is T2, human cathepsin D (hcatD) (Homo sapiens, UniProt P07339).
T2 construct: made in house
T2 sequence (P07339 65-412): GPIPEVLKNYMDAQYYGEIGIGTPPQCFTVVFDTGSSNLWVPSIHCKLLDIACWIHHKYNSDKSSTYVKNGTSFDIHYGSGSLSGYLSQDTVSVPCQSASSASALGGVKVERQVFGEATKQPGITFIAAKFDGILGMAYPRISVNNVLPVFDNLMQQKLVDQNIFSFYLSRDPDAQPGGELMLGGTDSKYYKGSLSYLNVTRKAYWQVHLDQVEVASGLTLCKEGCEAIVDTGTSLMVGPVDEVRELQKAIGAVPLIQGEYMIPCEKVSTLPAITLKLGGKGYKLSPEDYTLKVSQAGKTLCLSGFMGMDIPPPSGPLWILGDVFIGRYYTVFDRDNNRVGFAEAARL
The experiment in a line: Inhibition of human cathepsin D, dissociation constants (Ki). It counts as biochemical. Particulars: pre-incubated in 200 mM sodium formate pH 3.7, 37°C, 5 min; read-out: Dissociation Constant (K i) hCatD. As to the method:
as §3
Proteins were purified using anion exchange chromatography.
Dissociation constants (Ki) were determined as described above.

Another test deals with PoPM4. As to conditions: read-out: Dissociation Constant (K i) PoPM4; cited from earlier work.
For the next test, the target named is PmPM4. Particulars: read-out: Dissociation Constant (K i) PmPM4; cited from earlier work.
Test [3] addresses T1, PbPM4. The experiment in a line: Kinetic analysis of cleavage of chromogenic peptide substrates by mature PbPM4. It counts as biochemical. As to conditions: sodium citrate pH 5.0, 37°C. How it is done: as §1, §2
The substrate hydrolysis was analyzed by spectroscopy and defined as the decrease of the average absorbance between 284–324 nm. Pre-equilibrated enzyme was mixed with substrate at least six different concentrations (μM). The initial cleavage velocities (AU/sec) of these reactions were immediately measured on a Cary 50 Bio UV-Visible spectrophotometer. The initial cleavage rates (M/sec) were converted from the observed velocities (AU/sec) by dividing the observed velocities by the total absorbance changes upon complete enzymatic digestion of the substrate of known concentrations (i.e., AU/M).
The total concentration of active enzyme, [E]tot, was determined by titrating PbPM4 enzyme with the tight binding, competitive, aspartic proteinase inhibitor pepstatin A. A constant amount of pre-equilibrated enzyme was mixed either with 100 μM of the peptide substrate Lys-Pro-Ile-Leu-Phe*Nph-Arg-Leu or with both 100 μM of substrate and pepstatin A at a series of different concentrations. The initial cleavage rates of the substrate at different inhibitor concentrations were immediately measured afterwards using a Cary 50 Bio UV-Visible spectrophotometer.

Read-outs that look alike come from different tables or passages of the source. Where a SMILES comes first, the peptide text is derived from it. [ ]: non-standard residue; d: D form. The star is where a group is joined. Sta = CC(C)C[C@H](N)[C@@H](O)CC(=O)O; Isovaleryl = CC(C)CC(=O)* Where only a bound is given, the exact number is not on record here.

Regarding `N=C(N)NCCC[C@H](NC[C@H](Cc1ccccc1)NC(=O)[C@H](CCC(=O)O)NC(=O)[C@H](Cc1ccc(O)cc1)NC(=O)[C@@H]1CCCN1C(=O)[C@@H](N)CCCCN)C(=O)N[C@@H](CCC(N)=O)C(=O)N[C@@H](Cc1ccccc1)C(=O)O` [Compound 1, KPYEFΨRQF], the “selectivity to PbPM4 and the four plasmepsin 4 homologs of human malaria parasites versus hcatD” value on PbPM4 [1] (from K i values) is reported as greater than 10 fold. For the same compound, the Ki was 3900 nM on PbPM4 [1] (proPbPM4 pre-incubated in 100 mM sodium citrate pH 5.0, 37°C, 5 min, read-out: Dissociation Constant (K i) PbPM4); 426 ± 44 nM on PvPM4; greater than 100000 nM on PfPM1; 41000 nM in test [2].

For `CC(C)C[C@@H](CN[C@@H](CC(C)C)C(=O)N[C@@H](CCC(N)=O)C(=O)N[C@@H](Cc1ccccc1)C(=O)O)NC(=O)[C@H](CO)NC(=O)[C@H](Cc1ccccc1)NC(=O)[C@@H]1CCCN1C(=O)[C@@H](N)CCCCN` [Compound 2, KPFSLΨLQF], the Ki on PoPM4 is 767 ± 81 nM.

Turning to `CCCC[C@@H](CN[C@@H](CC(C)C)C(=O)N[C@@H](CCC(N)=O)C(=O)N[C@H](C(=O)O)[C@@H](C)CC)NC(=O)[C@H](CO)NC(=O)[C@H](CCCC)NC(=O)[C@@H]1CCCN1C(=O)[C@@H](N)CCCCN` [Compound 3, KPnLSnLΨLQI], the Ki at PoPM4 was 187 ± 29 nM; at PmPM4, 160 ± 26 nM.

As to `CC(C)[C@H](NC(=O)[C@@H]1CCCN1C(=O)[C@@H](N)CCCCN)C(=O)N[C@@H](CCC(=O)O)C(=O)N[C@H](CN[C@@H](CCCNC(=N)N)C(=O)N[C@@H](CCC(N)=O)C(=O)N[C@H](C(=O)O)[C@@H](C)O)Cc1ccccc1` [Compound 4, KPVEFΨRQT], the Ki was 39 ± 4.5 nM on PoPM4 and 10.3 ± 1.3 nM at PmPM4.

For `CC(C)C[C@H](NC(=O)[C@@H]1CCCN1C(=O)[C@@H](N)CCCCN)C(=O)N[C@@H](CCC(=O)O)C(=O)N[C@H](CN[C@@H](Cc1ccccc1)C(=O)N[C@@H](CCCNC(=N)N)C(=O)N[C@H](C(=O)O)C(C)C)Cc1ccccc1` [Compound 5, KPLEFΨFRV], the figures for the Ki at PoPM4 and at PmPM4 were 3.2 ± 0.5 nM and 3.7 ± 0.6 nM, respectively.

In the case of `CC(C)C[C@H](NC(=O)[C@@H]1CCCN1C(=O)[C@@H](N)CCCCN)C(=O)N[C@@H](CCC(=O)O)C(=O)N[C@H](CN[C@@H](Cc1ccc(O)cc1)C(=O)N[C@@H](CCCNC(=N)N)C(=O)N[C@H](C(=O)O)C(C)C)Cc1ccccc1` [Compound 6, KPLEFΨYRV], the values for the Ki at PoPM4 and at PmPM4 were 3.2 ± 0.5 nM and 0.342 ± 0.047 nM, respectively.

Consider `CC(C)C[C@@H](CN[C@@H](C)C(=O)N[C@@H](Cc1c[nH]c2ccccc12)C(=O)N[C@H](C(=O)O)[C@@H](C)O)NC(=O)[C@H](CCC(=O)O)NC(=O)[C@H](Cc1ccccc1)NC(=O)[C@@H]1CCCN1C(=O)[C@@H](N)CCCCN` [Compound 7, KPFELΨAWT], for which the Ki on PoPM4 was greater than 20000 nM; on PmPM4, 9000 nM.

Turning to `CC(C)CC(=O)N[C@H](C(=O)N[C@H](C(=O)N[C@@H](CC(C)C)[C@@H](O)CC(=O)N[C@@H](C)C(=O)N[C@@H](CC(C)C)[C@@H](O)CC(=O)O)C(C)C)C(C)C` [pepstatin A, reference compound] (Isovaleryl-VV[Sta]A[Sta]-OH), the Ki on PbPM4 [1] (mature PbPM4, sodium citrate pH 5.0, 37°C, 5 min pre-equilibrium, read-out: K i) is 0.11 ± 0.02 nM.

As for “Lys-Pro-Ile-Leu-Phe*Nph-Arg-Leu [K-P-I-L-F*Nph-R-L]”, at PbPM4 [3], the K m was 2.1 ± 0.2 µM, the k cat was determined as 34.9 ± 5.7 s⁻¹ and the “k cat/K m” value worked out at 1.65e+07 ± 2.9e+06 M⁻¹ s⁻¹.
